Results as given in paper PMC7476565 (Antiviral Research, 2020).

Tests used:
[1] = system: CRFK cells; assay: In vitro cytotoxicity MTS assay on CRFK cells; type: cell-based, feline; details: read-out: 50% cytotoxic concentration CC50, MTS assay
[2] = system: FIPV; assay: microbe, parasite or virus in culture; type: cell-based, feline infectious peritonitis virus (FIPV) strain 79-1146; details: for EC50: Alphacoronavirus 1, CRFK, 2 h, read-out: Prophylaxis treatment EC50, IPMA; for inhibition of the cytopathic effect (in words): FIPV in CRFK cells, all examined conditions
[3] = In vitro cytotoxicity MTS assay on CRFK cells; type: cell-based, feline; details: cat, 50% cytotoxic concentration CC50, MTS assay
[4] = system: FIPV; assay: FIPV RNA quantification by RT-qPCR in CRFK cells; type: cell-based, feline infectious peritonitis virus (FIPV) strain 79-1146; details: with higher concentration
[5] = target: FIPV 3CL^pro (Feline coronavirus, UniProt Q98VG9); assay: FRET protease inhibition assay, FIPV 3CLpro; type: biochemical, feline infectious peritonitis virus (FIPV) strain 79-1146
Chain of FIPV 3CL^pro (Q98VG9 2904-3205 limits assumed): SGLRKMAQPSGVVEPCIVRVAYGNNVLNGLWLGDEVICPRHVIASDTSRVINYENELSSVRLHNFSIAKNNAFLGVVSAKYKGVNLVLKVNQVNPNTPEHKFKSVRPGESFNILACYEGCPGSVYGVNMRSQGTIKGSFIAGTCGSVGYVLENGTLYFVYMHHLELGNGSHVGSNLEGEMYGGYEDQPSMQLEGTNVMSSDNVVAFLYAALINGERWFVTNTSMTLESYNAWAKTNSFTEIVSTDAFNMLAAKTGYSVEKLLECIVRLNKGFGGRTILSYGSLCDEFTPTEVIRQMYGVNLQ

[6] = system: TGEV; assay: Antiviral activity against TGEV replication in SK6 cells
[7] = system: FIPV; details: CRFK cells; CPE still observed; ref Weiss and Oostrom-Ram, 1989; cited from earlier work

Row | Compound | CC50 [1] [µM] | EC50 [2] [µM] | CC50 [3] [µM] | inhibition of the cytopathic effect (in words) [2] | copy numbers of FIPV RNAs / FIPV replication (RT-qPCR) [4] | Ki [5] [µM] | antiviral effect in TGEV cell-based assay (in words) [6] | Inhibitory dose for FIPV [7] [µg/mL]
1 | CC(C)C[C@H](NC(=O)OCc1ccccc1)C(=O)N[C@@H](CC1CCNC1=O)C(O)S(=O)(=O)O (stereo partly drawn) [GC376, reference compound] | > 200 |  |  |  |  |  |  | 
2 | Cc1cccc(C)c1OCC(=O)N[C@@H](Cc1ccccc1)[C@@H](O)C[C@H](Cc1ccccc1)NC(=O)[C@H](C(C)C)N1CCCNC1=O [Lopinavir, reference compound] |  | 33.7 ± 1.53 | > 100 |  |  |  |  | 
3 | O=C(C=Cc1ccc2ccccc2n1)c1cc(Cl)ccc1O [NSC71097, 1-(5-chloro-2-hydroxyphenyl)-3-(2-quinolinyl)-2-propen-1-one] |  | 1.99 ± 0.3 | 68.5 ± 4.82 | strongly inhibit | reduced replication | 15.2 ± 1.76 |  | 
4 | O=C(Nc1ccc(F)cc1)Oc1ccc[nH]c1=O [NSC282187, Carbamic acid, (4-fluorophenyl)-, 1,2-dihydro-2-oxo-3-pyridinyl ester] |  | > 200 | 510.7 ± 0.13 |  |  | 2.04 ± 0.08 | did not show an active antiviral effect | 
5 | N#CC1(C#N)C2C=CC(c3coc4cccc2c34)C1(C#N)C#N (stereo not drawn) [NSC629301, 3,6-dihydro-3,6-ethanocyclohepta (cd) (1) benzofuran-10,10,11,11-tetracarbonitrile] | 23.2 ± 5.19 | 6.11 ± 1.9 | 28.1 ± 5.19 | strongly inhibit | reduced replication | 9.39 ± 0.53 |  | 
6 | NC(=O)c1ncn([C@@H]2O[C@H](CO)[C@@H](O)[C@H]2O)n1 [Ribavirin, reference compound] |  | > 200 | > 500 |  |  |  |  | 50 to 100
